Test results from ChEMBL document CHEMBL4806963, “Antagonistic peptides for frizzled-1 and frizzled-2” (2013).
The source made the active and inactive calls. The rule behind the calls is not given here. Where a SMILES comes first, the peptide text is derived from it.

What was measured:
[1] = target: T1, Frizzled-4 (Homo sapiens) (UniProt Q9ULV1); assay: Antagonist activity at Wnt3a-stimulaed human frizzled-4 expressed in human HEK293superTOP flash cells at 10 nM incubated for 24 hrs by luciferase reporter gene assay; type: functional, cell-based; conditions: HEK293
T1 sequence (whole entry): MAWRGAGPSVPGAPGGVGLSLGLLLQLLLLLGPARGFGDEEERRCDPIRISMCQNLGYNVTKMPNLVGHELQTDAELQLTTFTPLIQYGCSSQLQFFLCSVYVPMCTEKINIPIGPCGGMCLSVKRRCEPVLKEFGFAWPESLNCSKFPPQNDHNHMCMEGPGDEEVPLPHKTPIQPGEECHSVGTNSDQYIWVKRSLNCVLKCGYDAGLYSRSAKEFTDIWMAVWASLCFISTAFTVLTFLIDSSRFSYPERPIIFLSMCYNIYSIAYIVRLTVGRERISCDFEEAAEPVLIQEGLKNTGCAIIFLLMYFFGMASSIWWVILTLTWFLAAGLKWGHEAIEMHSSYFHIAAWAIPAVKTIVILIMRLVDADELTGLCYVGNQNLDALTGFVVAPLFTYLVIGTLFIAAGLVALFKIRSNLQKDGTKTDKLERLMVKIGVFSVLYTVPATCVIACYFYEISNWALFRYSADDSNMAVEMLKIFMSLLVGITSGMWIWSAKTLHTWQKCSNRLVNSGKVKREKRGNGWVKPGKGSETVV

[2] = target: Frizzled-2 (Rattus norvegicus) (UniProt Q08464); assay: Agonist activity at rat frizzled-2 expressed in human HEK293superTOP flash cells by luciferase reporter gene assay; type: cell-based; conditions: HEK293
Sequence of Frizzled-2 (Rattus norvegicus) (Q08464 29-570 limits assumed): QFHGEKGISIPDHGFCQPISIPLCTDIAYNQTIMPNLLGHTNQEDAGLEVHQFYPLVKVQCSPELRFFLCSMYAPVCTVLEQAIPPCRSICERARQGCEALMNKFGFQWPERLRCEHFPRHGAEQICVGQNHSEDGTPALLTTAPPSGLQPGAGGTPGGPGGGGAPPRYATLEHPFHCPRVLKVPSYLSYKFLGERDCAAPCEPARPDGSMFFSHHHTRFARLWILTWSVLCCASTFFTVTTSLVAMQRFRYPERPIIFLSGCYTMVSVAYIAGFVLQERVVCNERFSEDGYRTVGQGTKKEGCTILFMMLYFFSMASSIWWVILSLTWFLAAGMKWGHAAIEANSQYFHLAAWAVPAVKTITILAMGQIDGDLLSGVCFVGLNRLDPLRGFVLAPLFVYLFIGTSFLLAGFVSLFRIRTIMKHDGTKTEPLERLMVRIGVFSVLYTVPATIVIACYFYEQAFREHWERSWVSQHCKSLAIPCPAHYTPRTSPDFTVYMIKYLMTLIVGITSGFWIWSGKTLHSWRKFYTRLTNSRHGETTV

Mus musculus [3] = assay: Cardioprotective activity against myocardial infarction Swiss mouse model assessed as increase in infarct area thickness in heart at 6 ug/kg/day, sc via osmotic pumps for 2 to 5 weeks by immunohistochemical staining analysis; type: functional, organism-based; conditions: dose 6.0 µg/kg/day, time 2-5 weeks
[4] = target: Frizzled-1 (Rattus norvegicus) (UniProt Q08463); assay: Antagonist activity at Wnt3a-stimulated rat frizzled-1 expressed in African green monkey COS7 cells incubated for 24 hrs by luciferase reporter gene assay relative to control; type: cell-based; conditions: filed as antagonist, concentration not given here
Sequence of Frizzled-1 (Rattus norvegicus) (Q08463 whole entry): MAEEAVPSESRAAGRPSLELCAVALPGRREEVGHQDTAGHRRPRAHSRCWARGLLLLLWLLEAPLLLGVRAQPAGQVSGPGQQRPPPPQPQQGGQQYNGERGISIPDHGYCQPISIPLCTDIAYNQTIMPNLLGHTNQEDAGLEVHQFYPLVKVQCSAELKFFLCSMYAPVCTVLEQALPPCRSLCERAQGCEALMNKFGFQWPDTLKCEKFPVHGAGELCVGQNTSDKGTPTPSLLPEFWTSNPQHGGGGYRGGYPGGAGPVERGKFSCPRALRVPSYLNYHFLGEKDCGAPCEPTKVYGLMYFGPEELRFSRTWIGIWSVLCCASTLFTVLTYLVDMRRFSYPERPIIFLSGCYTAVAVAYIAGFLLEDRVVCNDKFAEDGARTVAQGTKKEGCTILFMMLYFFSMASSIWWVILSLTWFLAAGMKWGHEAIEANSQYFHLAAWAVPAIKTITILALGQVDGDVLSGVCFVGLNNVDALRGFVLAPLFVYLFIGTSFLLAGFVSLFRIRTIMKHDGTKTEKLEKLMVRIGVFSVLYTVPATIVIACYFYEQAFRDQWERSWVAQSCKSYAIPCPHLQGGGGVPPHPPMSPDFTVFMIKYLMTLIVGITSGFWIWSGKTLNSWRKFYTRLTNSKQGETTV

[5] = target: Frizzled-1 (Rattus norvegicus) (UniProt Q08463); assay: Antagonist activity at Wnt3a-stimulated rat frizzled-1 expressed in human HEK293superTOP flash cells at 10 nM incubated for 24 hrs by luciferase reporter gene assay relative to control; type: cell-based; conditions: HEK293, filed as antagonist
Rattus norvegicus = species on record: Rattus norvegicus; assay: Selectivity index, ratio of IC50 for Wnt3a-stimulated rat frizzled-1 expressed in human HEK293superTOPFlash cells to IC50 for Wnt3a-stimulated rat frizzled-2 expressed in human HEK293superTOPFlash cells; type: cell-based
[6] = target: Frizzled-1 (Mus musculus) (UniProt O70421); assay: Antagonist activity at Wnt3a-stimulaed mouse frizzled-1 expressed in human HEK293superTOP flash cells incubated for 24 hrs by luciferase reporter gene assay; type: cell-based; conditions: HEK293, filed as antagonist
Sequence of Frizzled-1 (Mus musculus) (O70421 whole entry, looked up): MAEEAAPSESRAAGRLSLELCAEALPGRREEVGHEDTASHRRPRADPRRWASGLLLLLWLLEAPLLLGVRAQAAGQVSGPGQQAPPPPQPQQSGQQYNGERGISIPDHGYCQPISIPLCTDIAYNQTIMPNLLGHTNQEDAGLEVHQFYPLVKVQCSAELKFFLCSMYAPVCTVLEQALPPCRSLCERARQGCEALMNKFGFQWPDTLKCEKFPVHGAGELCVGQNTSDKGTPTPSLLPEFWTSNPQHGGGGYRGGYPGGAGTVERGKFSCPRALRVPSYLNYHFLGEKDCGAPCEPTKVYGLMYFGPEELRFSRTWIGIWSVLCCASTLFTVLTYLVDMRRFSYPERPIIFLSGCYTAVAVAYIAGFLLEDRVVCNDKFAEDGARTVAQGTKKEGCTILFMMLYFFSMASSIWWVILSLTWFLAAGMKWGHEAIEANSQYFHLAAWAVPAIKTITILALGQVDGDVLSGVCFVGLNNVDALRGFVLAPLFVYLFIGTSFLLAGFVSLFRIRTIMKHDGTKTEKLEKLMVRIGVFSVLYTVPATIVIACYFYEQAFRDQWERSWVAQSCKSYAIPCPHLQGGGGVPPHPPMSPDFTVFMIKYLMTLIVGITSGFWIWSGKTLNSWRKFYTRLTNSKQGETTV

[7] = target: Frizzled-1 (Rattus norvegicus) (UniProt Q08463); assay: Antagonist activity at rat frizzled-1 expressed in rat C-FIT cells assessed as inhibition of Wnt5a-stimulated blockade of migration at 10 nM incubated for 48 hrs and measured for 24 hrs following the scratch by scratch wound healing assay; type: cell-based; conditions: filed as antagonist, time 72.0 hrs
Mus musculus [8] = assay: Cardioprotective activity against myocardial infarction Swiss mouse model assessed as increase in alpha-SMA gene expression in heart at 6 ug/kg/day, sc via osmotic pumps for 5 weeks by qPCR analysis; type: functional, organism-based; conditions: dose 6.0 µg/kg/day
Mus musculus [9] = assay: Cardioprotective activity against myocardial infarction Swiss mouse model assessed as reduction in collagen level in infarct area at 6 ug/kg/day, sc via osmotic pumps for 5 weeks by immunohistochemical staining analysis; type: functional, organism-based; conditions: dose 6.0 µg/kg/day
Mus musculus [10] = assay: Cardioprotective activity against myocardial infarction Swiss mouse model assessed as reduction in infarction expansion in heart at 6 ug/kg/day, sc via osmotic pumps for 5 weeks by macroscopic analysis; type: functional, organism-based; conditions: dose 6.0 µg/kg/day
[11] = target: Frizzled-1 (Rattus norvegicus) (UniProt Q08463); assay: Agonist activity at rat frizzled-1 expressed in African green monkey COS7 cells by luciferase reporter gene assay; type: cell-based
[12] = target: Frizzled-2 (Rattus norvegicus) (UniProt Q08464); assay: Agonist activity at rat frizzled-2 expressed in CHO cells by luciferase reporter gene assay; type: cell-based
Mus musculus [13] = assay: Cardioprotective activity against myocardial infarction Swiss mouse model assessed as reduction in wet lung weight at 6 ug/kg/day, sc via osmotic pumps for 5 weeks; type: functional, organism-based; conditions: dose 6.0 µg/kg/day
[14] = target: Frizzled-2 (Homo sapiens) (UniProt Q14332); assay: Antagonist activity at frizzled-2 (unknown origin) expressed in human HEK293superTOP flash cells incubated for 24 hrs by luciferase reporter gene assay; type: functional, cell-based; conditions: HEK293
Sequence of Frizzled-2 (Homo sapiens) (Q14332 24-565 limits assumed): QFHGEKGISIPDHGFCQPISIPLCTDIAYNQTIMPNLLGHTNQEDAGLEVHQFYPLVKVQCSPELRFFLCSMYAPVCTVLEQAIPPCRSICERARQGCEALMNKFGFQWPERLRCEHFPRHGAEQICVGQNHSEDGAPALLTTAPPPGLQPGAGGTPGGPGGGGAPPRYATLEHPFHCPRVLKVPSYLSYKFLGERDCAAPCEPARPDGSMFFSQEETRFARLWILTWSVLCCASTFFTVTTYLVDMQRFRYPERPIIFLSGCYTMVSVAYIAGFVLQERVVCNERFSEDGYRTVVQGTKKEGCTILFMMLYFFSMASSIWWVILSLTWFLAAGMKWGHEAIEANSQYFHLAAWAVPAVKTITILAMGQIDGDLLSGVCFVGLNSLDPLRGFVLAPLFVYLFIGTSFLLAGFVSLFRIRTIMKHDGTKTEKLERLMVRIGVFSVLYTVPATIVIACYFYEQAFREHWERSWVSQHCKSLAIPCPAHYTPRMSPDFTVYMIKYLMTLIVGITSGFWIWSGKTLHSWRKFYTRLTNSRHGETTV

[15] = target: Frizzled-2 (Homo sapiens) (UniProt Q14332); assay: Antagonist activity at Wnt3a-stimulated frizzled-2 (unknown origin) expressed in human HEK293superTOP flash cells incubated for 24 hrs by luciferase reporter gene assay; type: functional, cell-based; conditions: HEK293, filed as antagonist
Mus musculus [16] = assay: Cardioprotective activity against myocardial infarction Swiss mouse model assessed as ventricular dilation at 6 ug/kg/day, sc via osmotic pumps for 5 weeks by macroscopic analysis; type: functional, organism-based; conditions: dose 6.0 µg/kg/day
[17] = target: Frizzled-1 (Homo sapiens) (UniProt Q9UP38); assay: Antagonist activity at Wnt3a-stimulaed frizzled-1 (unknown origin) expressed in human HEK293superTOP flash cells at 1 nM incubated for 24 hrs by luciferase reporter gene assay (reference value: 0%); type: functional, cell-based; conditions: HEK293, filed as antagonist
Sequence of Frizzled-1 (Homo sapiens) (Q9UP38 70-647 limits assumed): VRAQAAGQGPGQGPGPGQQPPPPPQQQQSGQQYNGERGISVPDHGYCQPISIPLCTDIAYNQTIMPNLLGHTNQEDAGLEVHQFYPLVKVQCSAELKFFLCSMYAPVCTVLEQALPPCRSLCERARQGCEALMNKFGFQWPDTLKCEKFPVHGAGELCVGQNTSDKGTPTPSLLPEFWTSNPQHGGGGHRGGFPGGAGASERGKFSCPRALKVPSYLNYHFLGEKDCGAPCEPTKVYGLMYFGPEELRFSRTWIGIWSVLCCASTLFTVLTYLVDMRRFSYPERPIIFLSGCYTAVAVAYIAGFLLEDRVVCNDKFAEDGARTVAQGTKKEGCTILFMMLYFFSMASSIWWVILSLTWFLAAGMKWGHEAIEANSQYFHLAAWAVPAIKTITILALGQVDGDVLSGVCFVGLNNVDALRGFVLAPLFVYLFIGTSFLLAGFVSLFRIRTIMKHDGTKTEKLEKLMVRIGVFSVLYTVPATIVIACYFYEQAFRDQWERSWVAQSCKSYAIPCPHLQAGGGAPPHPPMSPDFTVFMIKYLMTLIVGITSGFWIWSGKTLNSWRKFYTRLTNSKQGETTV

[18] = target: Frizzled-2 (Rattus norvegicus) (UniProt Q08464); assay: Agonist activity at rat frizzled-2 expressed in African green monkey COS7 cells by luciferase reporter gene assay; type: cell-based
Mus musculus [19] = assay: Cardioprotective activity against myocardial infarction Swiss mouse model assessed as reduction in infarct area in heart at 6 ug/kg/day, sc via osmotic pumps for 2 to 5 weeks by immunohistochemical staining analysis; type: functional, organism-based; conditions: dose 6.0 µg/kg/day, time 2-5 weeks
[20] = target: Frizzled-1 (Rattus norvegicus) (UniProt Q08463); assay: Antagonist activity at Wnt3a-stimulated rat frizzled-1 expressed in CHO cells incubated for 24 hrs by luciferase reporter gene assay relative to control; type: cell-based; conditions: filed as antagonist, concentration not given here
[21] = target: Frizzled-2 (Homo sapiens) (UniProt Q14332); assay: Antagonist activity at frizzled-2 (unknown origin) expressed in rat C-FIT cells assessed as inhibition of Wnt3a-stimulated cell differentiation changes by measuring alpha-smooth muscle actin gene expression at 10 nM by quantitative RT-PCR analysis; type: functional, cell-based; conditions: filed as antagonist
[22] = target: Frizzled-1 (Rattus norvegicus) (UniProt Q08463); assay: Agonist activity at rat frizzled-1 expressed in human HEK293superTOP flash cells by luciferase reporter gene assay; type: cell-based; conditions: HEK293
[23] = target: Frizzled-1 (Homo sapiens) (UniProt Q9UP38); assay: Antagonist activity at frizzled-1 (unknown origin) expressed in rat C-FIT cells assessed as inhibition of Wnt3a-stimulated blockade of migration at 10 nM incubated for 48 hrs and measured for 24 hrs following the scratch by scratch wound healing assay; type: functional, cell-based; conditions: filed as antagonist, time 72.0 hrs
[24] = target: Frizzled-2 (Homo sapiens) (UniProt Q14332); assay: Antagonist activity at frizzled-2 (unknown origin) expressed in rat C-FIT cells assessed as inhibition of Wnt3a-stimulated blockade of migration at 10 nM incubated for 48 hrs and measured for 24 hrs following the scratch by scratch wound healing assay; type: functional, cell-based; conditions: filed as antagonist, time 72.0 hrs
[25] = target: Frizzled-1 (Rattus norvegicus) (UniProt Q08463); assay: Antagonist activity at rat frizzled-1 expressed in rat C-FIT cells assessed as inhibition of Wnt3a-stimulated blockade of migration at 10 nM incubated for 48 hrs and measured for 24 hrs following the scratch by scratch wound healing assay; type: cell-based; conditions: filed as antagonist, time 72.0 hrs
[26] = target: Frizzled-2 (Homo sapiens) (UniProt Q14332); assay: Antagonist activity at frizzled-2 (unknown origin) expressed in rat C-FIT cells assessed as inhibition of Wnt5a-stimulated cell differentiation changes by measuring alpha-smooth muscle actin gene expression at 10 nM by quantitative RT-PCR analysis; type: functional, cell-based; conditions: filed as antagonist
[27] = target: Frizzled-5 (Homo sapiens) (UniProt Q13467); assay: Antagonist activity at Wnt3a-stimulaed human frizzled-5 expressed in human HEK293superTOP flash cells at 10 nM incubated for 24 hrs by luciferase reporter gene assay; type: functional, cell-based; conditions: HEK293
Sequence of Frizzled-5 (Homo sapiens) (Q13467 whole entry): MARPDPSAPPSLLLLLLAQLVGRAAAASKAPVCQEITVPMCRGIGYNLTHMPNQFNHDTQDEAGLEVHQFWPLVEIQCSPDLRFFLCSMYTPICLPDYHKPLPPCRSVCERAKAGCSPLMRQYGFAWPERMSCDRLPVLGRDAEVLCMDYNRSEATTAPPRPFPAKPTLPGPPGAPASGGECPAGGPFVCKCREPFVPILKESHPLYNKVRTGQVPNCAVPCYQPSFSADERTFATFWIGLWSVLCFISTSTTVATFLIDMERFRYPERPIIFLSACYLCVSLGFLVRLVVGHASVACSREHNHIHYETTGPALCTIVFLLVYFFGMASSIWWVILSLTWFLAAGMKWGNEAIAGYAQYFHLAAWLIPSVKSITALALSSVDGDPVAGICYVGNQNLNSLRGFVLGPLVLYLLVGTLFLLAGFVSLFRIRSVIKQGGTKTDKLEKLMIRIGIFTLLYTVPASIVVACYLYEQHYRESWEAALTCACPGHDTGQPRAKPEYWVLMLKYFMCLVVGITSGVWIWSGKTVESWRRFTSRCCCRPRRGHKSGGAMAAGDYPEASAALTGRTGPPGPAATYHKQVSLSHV

CSCC[C@H](NC(=O)CNC(=O)[C@H](CCC(=O)O)NC(=O)[C@H](CO)NC(=O)[C@@H](NC(=O)[C@H](CCCCN)NC(=O)[C@H](CC(N)=O)NC(=O)[C@H](CS)NC(C)=O)[C@@H](C)O)C(=O)N[C@@H](CC(=O)O)C(=O)NCC(=O)N[C@@H](CS)C(=O)N[C@@H](CCC(=O)O)C(=O)N[C@@H](CC(C)C)C(N)=O (Ac-CNKTSEGMDGCEL-NH2)
inhibition [1]: inactive | Activity [2]: inactive | Activity (Mus musculus [3]): Active | inhibition [4]: 100% | inhibition [5]: 100% | Ratio IC50 (Rattus norvegicus): 100 | inhibition [6]: Active | inhibition [7]: 100% | Activity (Mus musculus [8]): Active | Activity (Mus musculus [9]): Active | Activity (Mus musculus [10]): Active | Activity [11]: inactive | Activity [12]: inactive | Activity (Mus musculus [13]): Active | inhibition [14]: inactive | inhibition [15]: Dose-Dependent Effect | Activity (Mus musculus [16]): Active | inhibition [17]: 18% | Activity [18]: inactive | Activity (Mus musculus [19]): Active | inhibition [20]: 100% | inhibition [21]: 100% | Activity [22]: inactive | inhibition [23]: 100% | inhibition [24]: 100% | inhibition [25]: 100% | inhibition [26]: 100% | inhibition [27]: inactive
